Measured values reported in patent US20240003872A1, “METHODS FOR ASSAYING AND MEASURING THE EFFICACY OF ANTI-NAUSEA COMPOUNDS” (priority 2020, published 2024).
“Also recorded” adds a separate entry of the source.

Experiments:
[1] = system: women after laparascopic gynaecological surgery; conditions: post-operative; given one hour prior to anaesthesia; placebo 41%; cited from earlier work
[2] = system: Women undergoing gynecological surgery; conditions: 1.0 g ginger or 10 mg metochlopramide orally prior to surgery; P < .05; cited from earlier work
[3] = system: college students with self-rated high susceptibility to motion sickness; conditions: 940 mg ginger root or 100 mg Dramamine 25-30 minutes prior to test; P < .001; cited from earlier work
[4] = system: human intestinal smooth muscle cells (HISMCs); assay: HISMC/collagen matrix cell contraction assay; type: cell-based
Method: This assay was used to study the ability of […] to reorganize and contract in a collagen matrix. All procedures were done accordingly to protocols described by Dr. Alexander (5-HT3 dependent smooth muscle contraction assay, revised Aug. 30, 2012). The assay consisted in the preparation of collagen solution and in the polymerization and release of […]/collagen matrices. For 12 mL of collagen/[…], 15.0 mg of rat tail collagen was dissolved in 3.2 mL of cold 0.012M HCL. The solution was placed for 30 min in a rocker machine for gently agitation to avoid introducing bubbles. Then, 0.8 mL of cold PBS was added to the tube, mixed well, and kept on ice. The pH of the collagen solution was quickly titrated with 0.5 M NaOH to 7.45, and monitored by pH strips. The final collagen concentration was 1.25 mg/mL. The neutralized cold collagen solution was mixed with 12 mL of cold SMCM/1.5% dialyzed FBS containing […] at desire cell density (1×10^5 cells/mL). 0.5 mL of collagen/[…] mixture was added per well in 24-well plates and was incubated for 1 h at 37° C., 5% CO2. After collagen polymerization, 0.5 mL of culture medium with or without two-time concentration of drug treatments was added atop each collagen gel lattice. The polymerized collagen matrix containing […] was released from the edges of the well with a sterilized heat-blunted Pasteur pipette tip to allow them to float in culture medium, and contraction occurred with or without agonist addition in the absence of external mechanical load. The collagen gel size change (contraction index) was measured by morphometric analysis at various times (0, 24, 48, and 72 h). The culture plates were analyzed in triplicate and monitored at 24 h intervals. At the end of each time point, the plates were scanned via an Epson flatbed scanner.

[5] = system: women after laparascopic gynaecological surgery; conditions: ginger, 1.25 mg droperidol, vs placebo; cited from earlier work

CCN(CC)CCNC(=O)c1cc(Cl)c(N)cc1OC [metochlopramide]
patients nauseated [1]: placebo, 27%
effectiveness versus placebo for post-operative nausea and vomiting control [2]: significantly more effective than placebo

CN(C)CCOC(c1ccccc1)c1ccccc1 [diphenhydramine]
reducing vection induced motion sickness versus placebo (time in induced motion) [3]: more effective than dried chickweed herb placebo

Cc1nccn1CC1CCc2c(c3ccccc3n2C)C1=O (centres unmarked) [Ondansetron]
effect on 5-HT induced HISMC/collagen matrix contraction ([4]; with 5-HT (10^−7M), different concentrations, 0-72 h): reduced; also recorded: inhibited HISMCs contractions in a concentration- and time-dependent manner
effect on HISMC/collagen matrix contraction without 5-HT ([4]; without 5-HT, different concentrations, 0-72 h): inhibited HISMCs contractions in a concentration- and time-dependent manner

C[C@@H](O[C@H]1OCCN(Cc2n[nH]c(=O)[nH]2)[C@H]1c1ccc(F)cc1)c1cc(C(F)(F)F)cc(C(F)(F)F)c1 [Aprepitant]
effect on HISMC/collagen gel contraction ([4]; different concentrations, with or without 5-HT3): attenuated collagen gel contraction only at high concentrations, 10^−4 M and not significantly

Cl.NCCc1c[nH]c2ccc(O)cc12 [5-HT, 5-Hydroxytryptamine hydrochloride]
contraction of HISMC gels induced by agonist ([4]; 5-HT at 10^−7M, 10^−8M and 10^−9M): induced dose and time dependent contraction

O=C(CCCN1CC=C(n2c(=O)[nH]c3ccccc32)CC1)c1ccc(F)cc1 [droperidol]
decrease in nausea or vomiting post-surgery [5]: no differences
